Test results: patent US20250320193A1, “OXOISOINDOLINYL SUBSTITUTED PIPERIDINEDIONE DERIVATIVE AND USE THEREOF” (GLUETACS THERAPEUTICS (SHANGHAI) CO., LTD., priority 2022, published 2025)

Tests used:
Assay type in all cases: cell-based
Settings in all cases: hPBMC, compound 500 nM, 24 hours, Western blot
IKZF3 = IKZF3 (Homo sapiens (Human), UniProt Q96SW2+Q9UKT9); experiment: Western blot, substrate protein expression in hPBMC: IKZF3
Protocol: (§1) The effect of the compounds of the present disclosure on the expression of target proteins in cells was detected using conventional Western blot analysis.
(§2) Human peripheral blood mononuclear cells (hPBMCs) at a density of 1×10^6 cells/mL were thawed according to the PBMC Recovery Protocol (Milecell Biotechnologies Inc, Shanghai). […] After 24 hours of compounds treatment, cells were harvested and lysed in RIPA protein lysate containing phosphatase inhibitors on ice for 30-60 min, followed by centrifugation. The supernatant was aspirated as the extracted total cell protein. The protein concentration of the supernatant was determined using the conventional BCA (Bicinchoninic Acid) assay. The supernatant was then mixed with 4× SDS sample loading buffer, denatured at 95° C. for 5 minutes, and then subjected to SDS-PAGE electrophoresis on a polyacrylamide gel. Proteins were then transferred to a nitrocellulose (NC) membrane, blocked at room temperature for 1-2 h, and processed for antibody incubation and detection according to the manufacturer's instructions (Cell Signaling Technology).
(§3) Half-Maximal Degradation Concentration value (the drug concentration required for degrading proteins by 50%, abbreviated as DC50) reads method: comparing the grayscale values of Western blot bands from drug-treated samples (protein degrader compounds) with those from blank (DMSO-treated) controls, and identifying the drug concentration range at which the grayscale value is half that of the DMSO-treated control bands.
(§4) DC50 values can be calculated using ImageJ software to measure grayscale values of Western blot bands from drug-treated samples. The relationship curve between drug concentration and grayscale values is fitted to estimate the drug concentration corresponding to half the grayscale value.
(§5) Target protein remaining (%) refers to the percentage of target protein remaining in hPBMC cells after treatment with protein degrader compounds.
(§6) Calculation method for protein remaining (%): Use ImageJ software to measure grayscale values of Western blot bands from drug (protein degrader)-treated samples. The grayscale value of drug-treated bands is divided by that of internal control protein bands, and the resulting quotient is normalized to obtain the relative percentage of remaining target protein after protein degrader treatment.
(§7) Target protein degradation rate (%)=100%-target protein remaining (%).

GSPT1 = GSPT1 (Homo sapiens (Human), UniProt P15170+Q96SW2); experiment: Western blot, substrate protein expression in hPBMC: GSPT1
Protocol: as §1, §2, §3, §4, §5, §6, §7

IKZF1 = IKZF1 (Homo sapiens (Human), UniProt Q13422+Q96SW2); experiment: Western blot, substrate protein expression in hPBMC: IKZF1
Protocol: as §1, §2, §3, §4, §5, §6, §7

Sequence of IKZF3 (Q9UKT9 whole entry): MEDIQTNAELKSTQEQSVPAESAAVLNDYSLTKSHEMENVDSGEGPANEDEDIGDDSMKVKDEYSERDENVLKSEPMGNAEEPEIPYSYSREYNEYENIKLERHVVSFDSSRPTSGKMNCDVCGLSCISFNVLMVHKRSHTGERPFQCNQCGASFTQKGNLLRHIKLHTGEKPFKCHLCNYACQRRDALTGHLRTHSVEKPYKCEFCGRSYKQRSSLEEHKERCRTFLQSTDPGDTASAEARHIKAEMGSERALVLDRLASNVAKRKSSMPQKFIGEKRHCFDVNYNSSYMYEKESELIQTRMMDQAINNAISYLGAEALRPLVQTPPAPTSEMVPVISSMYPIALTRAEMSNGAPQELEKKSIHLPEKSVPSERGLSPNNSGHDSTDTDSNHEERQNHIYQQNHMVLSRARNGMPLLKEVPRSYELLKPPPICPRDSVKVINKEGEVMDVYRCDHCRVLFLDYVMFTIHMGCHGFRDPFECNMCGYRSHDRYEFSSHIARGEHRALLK
Sequence of IKZF3 (Q96SW2 whole entry): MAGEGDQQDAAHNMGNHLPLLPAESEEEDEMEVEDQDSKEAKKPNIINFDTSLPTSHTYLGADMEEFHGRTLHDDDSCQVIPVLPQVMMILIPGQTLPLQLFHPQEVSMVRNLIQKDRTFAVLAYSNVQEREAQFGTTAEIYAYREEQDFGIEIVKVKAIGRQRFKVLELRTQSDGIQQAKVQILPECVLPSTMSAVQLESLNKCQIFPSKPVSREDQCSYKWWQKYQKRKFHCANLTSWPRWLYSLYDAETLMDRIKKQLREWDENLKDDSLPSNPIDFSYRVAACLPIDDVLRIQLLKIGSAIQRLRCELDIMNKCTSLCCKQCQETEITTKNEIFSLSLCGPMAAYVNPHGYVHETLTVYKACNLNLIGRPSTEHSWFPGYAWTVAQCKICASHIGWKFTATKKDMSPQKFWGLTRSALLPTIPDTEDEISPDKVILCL
Sequence of IKZF3 (Q16531 whole entry partner): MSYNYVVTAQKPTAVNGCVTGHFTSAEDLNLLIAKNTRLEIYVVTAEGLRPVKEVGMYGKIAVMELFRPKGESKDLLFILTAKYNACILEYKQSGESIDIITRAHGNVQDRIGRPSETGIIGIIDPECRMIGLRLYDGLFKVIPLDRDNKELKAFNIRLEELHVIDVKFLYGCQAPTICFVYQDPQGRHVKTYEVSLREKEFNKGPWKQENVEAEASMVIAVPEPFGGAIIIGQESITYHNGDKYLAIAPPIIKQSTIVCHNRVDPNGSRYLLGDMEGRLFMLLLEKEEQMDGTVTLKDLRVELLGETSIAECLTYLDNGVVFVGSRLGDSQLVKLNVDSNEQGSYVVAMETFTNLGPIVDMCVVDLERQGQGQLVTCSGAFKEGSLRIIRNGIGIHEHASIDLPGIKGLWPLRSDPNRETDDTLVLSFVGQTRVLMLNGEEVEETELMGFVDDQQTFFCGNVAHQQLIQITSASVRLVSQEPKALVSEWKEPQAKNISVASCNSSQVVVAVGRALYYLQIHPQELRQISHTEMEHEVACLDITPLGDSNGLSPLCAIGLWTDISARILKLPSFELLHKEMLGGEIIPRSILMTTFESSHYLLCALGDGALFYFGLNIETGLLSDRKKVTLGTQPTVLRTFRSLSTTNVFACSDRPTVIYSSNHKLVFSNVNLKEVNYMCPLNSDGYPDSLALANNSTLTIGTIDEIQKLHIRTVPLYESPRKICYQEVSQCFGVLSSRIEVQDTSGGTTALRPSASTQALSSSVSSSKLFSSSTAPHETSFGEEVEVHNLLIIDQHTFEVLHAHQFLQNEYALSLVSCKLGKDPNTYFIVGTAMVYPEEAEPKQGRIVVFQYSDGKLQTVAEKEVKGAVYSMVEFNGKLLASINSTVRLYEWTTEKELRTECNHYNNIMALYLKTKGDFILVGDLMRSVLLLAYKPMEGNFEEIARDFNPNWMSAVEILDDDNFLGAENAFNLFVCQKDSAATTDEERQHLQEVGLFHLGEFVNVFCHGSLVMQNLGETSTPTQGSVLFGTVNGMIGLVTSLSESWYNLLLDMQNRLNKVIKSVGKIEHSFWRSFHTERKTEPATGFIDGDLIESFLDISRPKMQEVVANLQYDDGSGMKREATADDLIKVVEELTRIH
Sequence of GSPT1 (P15170 whole entry): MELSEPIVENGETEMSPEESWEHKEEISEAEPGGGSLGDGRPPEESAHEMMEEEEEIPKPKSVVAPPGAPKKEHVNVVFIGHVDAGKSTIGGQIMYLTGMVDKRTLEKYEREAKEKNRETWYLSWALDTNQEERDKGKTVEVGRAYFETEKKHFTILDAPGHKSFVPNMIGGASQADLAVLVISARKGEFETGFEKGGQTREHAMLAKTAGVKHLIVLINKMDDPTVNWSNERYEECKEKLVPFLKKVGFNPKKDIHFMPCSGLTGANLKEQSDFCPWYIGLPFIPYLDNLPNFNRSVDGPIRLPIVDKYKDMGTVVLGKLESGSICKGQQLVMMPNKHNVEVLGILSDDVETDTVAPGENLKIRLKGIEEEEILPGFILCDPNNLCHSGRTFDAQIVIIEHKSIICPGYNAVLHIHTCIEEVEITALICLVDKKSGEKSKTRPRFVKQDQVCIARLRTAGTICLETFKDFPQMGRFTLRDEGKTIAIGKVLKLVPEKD
Sequence of GSPT1 (Q96SW2 whole entry): as the sequence (Q96SW2 whole entry) above
Sequence of GSPT1 (Q16531 whole entry partner): as the sequence (Q16531 whole entry partner) above
Sequence of IKZF1 (Q13422 whole entry): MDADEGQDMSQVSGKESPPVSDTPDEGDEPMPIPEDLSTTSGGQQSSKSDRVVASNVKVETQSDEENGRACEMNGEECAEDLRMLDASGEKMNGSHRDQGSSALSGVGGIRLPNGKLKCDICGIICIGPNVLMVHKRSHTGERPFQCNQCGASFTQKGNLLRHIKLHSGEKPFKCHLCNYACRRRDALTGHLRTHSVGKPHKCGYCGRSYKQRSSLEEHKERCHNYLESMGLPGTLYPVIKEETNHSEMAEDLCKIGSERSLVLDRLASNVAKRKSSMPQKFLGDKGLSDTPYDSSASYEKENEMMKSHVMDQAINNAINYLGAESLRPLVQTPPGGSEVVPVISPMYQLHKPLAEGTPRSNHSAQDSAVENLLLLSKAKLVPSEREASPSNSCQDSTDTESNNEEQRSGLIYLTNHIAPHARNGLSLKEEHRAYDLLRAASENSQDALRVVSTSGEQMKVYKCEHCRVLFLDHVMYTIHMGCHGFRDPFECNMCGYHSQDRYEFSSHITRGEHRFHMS
Sequence of IKZF1 (Q96SW2 whole entry): as the sequence (Q96SW2 whole entry) above
Sequence of IKZF1 (Q16531 whole entry partner): as the sequence (Q16531 whole entry partner) above

Compound | substrate protein remaining % IKZF3 (IKZF3) | substrate protein remaining % GSPT1 (GSPT1) | substrate protein remaining % IKZF1 (IKZF1)
O=C1CCC(N2C(=O)c3ccc(CN4CC5CN(C(c6ccccc6)c6ccccc6)CC5C4)cc3C2=O)C(=O)N1 (stereo not drawn) [GT-06053, 5-((5-benzhydrylhexahydropyrrolo[3,4-c]pyrrol-2 (1H)-yl)methyl)-2-(2,6-dioxopiperidin-3-yl) isoindoline-1,3-dione] | B (B represents substrate protein remaining % > 50%) | A (A represents 0% ≤ substrate protein remaining % ≤ 50%) | B (B represents substrate protein remaining % > 50%)
O=C1CCC(N2C(=O)c3ccc(C(=O)N4CC5CN(C(c6ccccc6)c6ccccc6)CC5C4)cc3C2=O)C(=O)N1 (stereo not drawn) [GT-06068, 5-(5-benzhydryloctahydropyrrolo[3,4-c]pyrrole-2-carbonyl)-2-(2,6-dioxopiperidin-3-yl) isoindoline-1,3-dione] | B (B represents substrate protein remaining % > 50%) | A (A represents 0% ≤ substrate protein remaining % ≤ 50%) | B (B represents substrate protein remaining % > 50%)
O=C1CCC(N2C(=O)c3ccc(CN4CCN(C(c5ccccc5F)c5ccccc5F)CC4)cc3C2=O)C(=O)N1 (stereo not drawn) [GT-06088, 5-((4-(bis(2-fluorophenyl)methyl)piperazin-1-yl)methyl)-2-(2,6-dioxopiperidin-3-yl) isoindoline-1,3-dione] | B (B represents substrate protein remaining % > 50%) | A (A represents 0% ≤ substrate protein remaining % ≤ 50%) | B (B represents substrate protein remaining % > 50%)
C[C@@H]1CN(C(c2ccccc2)c2ccccc2)CCN1C(=O)c1ccc2c(c1)C(=O)N(C1CCC(=O)NC1=O)C2=O (stereo partly drawn) [GT-06094, 5-((R)-4-benzhydryl-2-methylpiperazine-1-carbonyl)-2-(2,6-dioxopiperidin-3-yl) isoindoline-1,3-dione] | B (B represents substrate protein remaining % > 50%) | A (A represents 0% ≤ substrate protein remaining % ≤ 50%) | B (B represents substrate protein remaining % > 50%)
O=C1CCC(N2C(=O)c3ccc(CN4CCN(C(c5ccccc5)c5ccccc5)CC4C(F)(F)F)cc3C2=O)C(=O)N1 (stereo not drawn) [GT-06099, 5-((4-benzhydryl-2-(trifluoromethyl)piperazin-1-yl)methyl)-2-(2,6-dioxopiperidin-3-yl) isoindoline-1,3-dione] | B (B represents substrate protein remaining % > 50%) | A (A represents 0% ≤ substrate protein remaining % ≤ 50%) | B (B represents substrate protein remaining % > 50%)
O=C1CCC(N2C(=O)c3ccc(CN4CCN(C(c5ccccc5)c5ccncc5)CC4)cc3C2=O)C(=O)N1 (stereo not drawn) [GT-06115, 2-(2,6-dioxopiperidin-3-yl)-5-((4-(phenyl(pyridin-4-yl)methyl)piperazin-1-yl)methyl) isoindoline-1,3-dione] | B (B represents substrate protein remaining % > 50%) | A (A represents 0% ≤ substrate protein remaining % ≤ 50%) | B (B represents substrate protein remaining % > 50%)
O=C1CCC(N2Cc3c(ccc(CN4CCN(C(c5ccc(C(F)(F)F)cc5)c5ccc(C(F)(F)F)cc5)CC4)c3F)C2=O)C(=O)N1 (stereo not drawn) [GT-06200, 3-(5-((4-(bis(4-(trifluoromethyl)phenyl)methyl)piperazin-1-yl)methyl)-4-fluoro-1-oxoisoindolin-2-yl)piperidine-2,6-dione] | A (A represents 0% ≤ substrate protein remaining % ≤ 50%) | A (A represents 0% ≤ substrate protein remaining % ≤ 50%) | B (B represents substrate protein remaining % > 50%)
O=C1CCC(N2Cc3cc(CN4CCN(C(c5ccc(C(F)(F)F)cc5)c5ccc(C(F)(F)F)cc5)CC4)c(F)cc3C2=O)C(=O)N1 (stereo not drawn) [GT-06201, 3-(5-((4-(bis(4-(trifluoromethyl)phenyl)methyl)piperazin-1-yl)methyl)-6-fluoro-1-oxoisoindolin-2-yl)piperidine-2,6-dione] | A (A represents 0% ≤ substrate protein remaining % ≤ 50%) | A (A represents 0% ≤ substrate protein remaining % ≤ 50%) | B (B represents substrate protein remaining % > 50%)
O=C1CCC(N2C(=O)c3ccc(CN4CCN(C(c5ccc(C(F)(F)F)cc5)c5ccc(C(F)(F)F)cc5)CC4)cc3C2=O)C(=O)N1 (stereo not drawn) [GT-06203, 5-((4-(bis(4-(trifluoromethyl)phenyl)methyl)piperazin-1-yl)methyl)-2-(2,6-dioxopiperidin-3-yl) isoindoline-1,3-dione] | A (A represents 0% ≤ substrate protein remaining % ≤ 50%) | A (A represents 0% ≤ substrate protein remaining % ≤ 50%) | B (B represents substrate protein remaining % > 50%)
O=C1CCC(N2C(=O)c3ccc(C(=O)N4CCN(C(c5ccc(C(F)(F)F)cc5)c5ccc(C(F)(F)F)cc5)CC4)cc3C2=O)C(=O)N1 (stereo not drawn) [GT-06217, 5-(4-(bis(4-(trifluoromethyl)phenyl)methyl)piperazine-1-carbonyl)-2-(2,6-dioxopiperidin-3-yl) isoindoline-1,3-dione] | B (B represents substrate protein remaining % > 50%) | A (A represents 0% ≤ substrate protein remaining % ≤ 50%) | B (B represents substrate protein remaining % > 50%)
CC1(C)CN(C(=O)c2ccc3c(c2)C(=O)N(C2CCC(=O)NC2=O)C3=O)CCN1C(c1ccccc1)c1ccccc1 (stereo not drawn) [GT-06278, 5-(4-benzhydryl-3,3-dimethylpiperazine-1-carbonyl)-2-(2,6-dioxopiperidin-3-yl) isoindoline-1,3-dione] | B (B represents substrate protein remaining % > 50%) | A (A represents 0% ≤ substrate protein remaining % ≤ 50%) | B (B represents substrate protein remaining % > 50%)
O=C1CCC(N2Cc3cc(CN4CCN(C(c5ccc(OCc6ccccc6)cc5)c5ccc(OCc6ccccc6)cc5)CC4)ccc3C2=O)C(=O)N1 (stereo not drawn) [GT-06424, 3-(5-((4-(bis(4-(benzyloxy)phenyl)methyl)piperazin-1-yl)methyl)-1-oxoisoindolin-2-yl)piperidine-2,6-dione] | A (A represents 0% ≤ substrate protein remaining % ≤ 50%) | A (A represents 0% ≤ substrate protein remaining % ≤ 50%) | B (B represents substrate protein remaining % > 50%)
O=C1CCC(N2C(=O)c3ccc(CN4CCN(C(c5ccc(OCc6ccccc6)cc5)c5ccc(OCc6ccccc6)cc5)CC4)cc3C2=O)C(=O)N1 (stereo not drawn) [GT-06425, 5-((4-(bis(4-(benzyloxy)phenyl)methyl)piperazin-1-yl)methyl)-2-(2,6-dioxopiperidin-3-yl) isoindoline-1,3-dione] | A (A represents 0% ≤ substrate protein remaining % ≤ 50%) | A (A represents 0% ≤ substrate protein remaining % ≤ 50%) | B (B represents substrate protein remaining % > 50%)
O=C1CCC(N2C(=O)c3ccc(C(=O)N4CCN(C(c5ccc(OCc6ccccc6)cc5)c5ccc(OCc6ccccc6)cc5)CC4)cc3C2=O)C(=O)N1 (stereo not drawn) [GT-06558, 5-(4-(bis(4-(benzyloxy)phenyl)methyl)piperazine-1-carbonyl)-2-(2,6-dioxopiperidin-3-yl) isoindoline-1,3-dione] | B (B represents substrate protein remaining % > 50%) | A (A represents 0% ≤ substrate protein remaining % ≤ 50%) | A (A represents 0% ≤ substrate protein remaining % ≤ 50%)
